Reference: ChEMBL document CHEMBL1128387, “Sigma ligands with subnanomolar affinity and preference for the sigma 2 binding site. 2. Spiro-joined benzofuran, isobenzofuran, and benzopyran piperidines” (J Med Chem, 1995)

Assays:
[1] = target: Sigma non-opioid intracellular receptor 1 (Rattus norvegicus, UniProt Q9R0C9); assay: Compound was evaluated for the binding affinity towards Sigma receptor type 1 using radioligand ([3H]-(+)- Pentazocine) binding assay.
[2] = target: Sigma intracellular receptor 2 (Rattus norvegicus, UniProt Q5U3Y7); assay: Binding affinity towards Sigma receptor type 2 in whole rat brain homogenates except cerebellum using radioligand ([3H]DTG) binding assay.; assay type: tissue-based
Sigma intracellular receptor 2, sequence (Q5U3Y7 whole entry, looked up): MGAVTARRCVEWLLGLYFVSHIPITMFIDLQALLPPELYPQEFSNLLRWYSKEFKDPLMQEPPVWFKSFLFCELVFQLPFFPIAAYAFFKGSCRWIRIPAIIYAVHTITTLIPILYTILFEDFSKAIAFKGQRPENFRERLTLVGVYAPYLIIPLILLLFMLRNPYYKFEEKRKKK

Sigma non-opioid intracellular receptor 1, sequence (Q9R0C9 whole entry): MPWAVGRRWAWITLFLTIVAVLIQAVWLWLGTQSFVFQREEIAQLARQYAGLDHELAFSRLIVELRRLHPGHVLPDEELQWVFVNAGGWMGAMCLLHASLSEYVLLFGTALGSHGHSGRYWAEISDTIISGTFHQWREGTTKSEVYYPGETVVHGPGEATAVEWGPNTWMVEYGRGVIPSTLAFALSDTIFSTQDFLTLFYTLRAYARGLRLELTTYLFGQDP

Structure (SMILES) | IC50 [1] [nM] | IC50 [2] [nM]
Fc1ccc(-n2cc(CCCCN3CCC4(CC3)COc3ccccc3C4)c3ccccc32)cc1 | 200 | –
CCN1CCC2(CC1)OCc1ccccc12 | 140 | 270
Fc1ccc(-n2cc(CCCCN3CCC4(CC3)OCc3c(C(F)(F)F)cccc34)c3ccccc32)cc1 | 180 | –
Fc1ccc(-n2cc(CCCCN3CCC4(CC3)OCc3c(F)cccc34)c3ccccc32)cc1 | 290 | –
Fc1ccc(-n2cc(CCCCN3CCC4(CC3)SCc3ccccc34)c3ccccc32)cc1 | 35 | –
Fc1ccc(-n2cc(CCCCN3CCC4(CC3)Cc3ccccc3CO4)c3ccccc32)cc1 | 23 | –
c1ccc(CCCCN2CCC3(CC2)OCc2ccccc23)cc1 | 0.27 | –
Fc1ccc(-n2cc(CCCCN3CCC4(CC3)Cc3ccccc3O4)c3ccccc32)cc1 | 360 | –
CC(C)N1CCC2(CC1)OCc1ccccc12 | 31 | 49
Fc1ccc(-n2cc(CCCCN3CCC4(CC3)COCc3ccccc34)c3ccccc32)cc1 | 3.4 | –
c1ccc(CN2CCC3(CCCc4ccccc43)CC2)cc1 | – | 12
c1ccc2c(c1)COC21CCN(CCCCC2CCCCC2)CC1 | 1.5 | –
c1ccc(CCN2CCC3(CC2)OCc2ccccc23)cc1 | 2.2 | –
Fc1ccc(-n2cc(CCCCN3CCC4(CCOc5ccccc54)CC3)c3ccccc32)cc1 | 7 | –
Fc1ccc(-n2cc(CCCCN3CCC4(CC3)OCCc3ccccc34)c3ccccc32)cc1 | 53 | –
Fc1ccc(-n2cc(CCCCN3CCC4(CC3)OCc3cccc(F)c34)c3ccccc32)cc1 | 150 | –
Cc1ccc2c(c1)COC21CCN(CCCCc2cn(-c3ccc(F)cc3)c3ccccc23)CC1 | 9.5 | 2.3
c1ccc(CCCN2CCC3(CC2)OCc2ccccc23)cc1 | 0.56 | –
Fc1ccc(-n2cc(CCCCN3CCC4(CC3)Oc3ccccc3O4)c3ccccc32)cc1 | 430 | –
c1ccc(CCCCCN2CCC3(CC2)OCc2ccccc23)cc1 | 0.82 | –
Fc1ccc(-n2cc(CCCCN3CCC4(CC3)COc3ccccc34)c3ccccc32)cc1 | 3.8 | –
CCCN1CCC2(CC1)OCc1ccccc12 | 4.7 | 23
c1ccc2c(c1)COC21CCNCC1 | 630 | 11000
c1ccc2c(c1)COC21CCN(CCCOC2CCCCC2)CC1 | 0.4 | –
